# Values quoted from earlier work in patent publication US20230286919A1, “ISOQUINOLINE DERIVATIVES FOR USE IN THERAPY” (Vestlandets Innovasjonsselskap AS, priority 2020, published 2023).
# Test system: STAT1 and STAT5
# Details: cited from earlier work
smiles,measurement,value
Cc1ccc(S(=O)(=O)OCC(=O)Nc2ccc(C(=O)O)c(O)c2)cc1 [S3I-201],Activity towards STAT1 and STAT5,low activity
